From patent US9233099B2, “Methods of treating cognitive dysfunction by modulating brain energy metabolism” (University of Cincinnati, priority 2012, dated 2016)

What was measured:
CRT KO mice [1] = test: Levels of cyclocreatine in the brain after supplementation; format: in vivo; settings: 9 weeks supplementation in drinking water, 0.286 mg/g body weight/day
Source text: Regarding FIG. 3, CRT brain-specific knockout male mice (CRT′ or CRT KO mice) and their control littermates (CrTf1″5″) were generated by the methods known in the art (e.g., by using the Cre-lox system and homologous recombination as described in Sauer B., Methods, 1998, 14, 381-392; the strategy for targeting the gene deletion to the brain region was based on the data described in Casanova E. et al., Genesis 2001, 31, 37-42). […] A total 29 CRT KO male mice (CRT^/y) and 28 control male mice (CRT^flox/y) at 12 months of age were used in the cyclocreatine supplementation study. The mice were randomly assigned to one of three groups that were started on one of three treatments for 9 weeks: 1) cyclocreatine (C-Cr, CRT KO=7, control=5), 2) creatine (Cr, CRT KO=5, control=5), and 3) maltodextrine as placebo (P, CRT KO=5, control=5). […] Levels of cyclocreatine and creatine in the organs of CRT KO mice and their control littermates before cyclocreatine supplementation were measured by the methods known in the art (e.g., creatine content was measured as described in Conn R., Clin. Chem., 1960, 6, 537-548; and cyclocreatine content was measured as described in Griffith G. R., J Biol. Chem. 1976, 251(7), 2049-2054). […] Data is expressed as mean±SE. §P≦0.0001, §§P<0.00001.

CRT KO mice [2] = test: Novel Object Recognition test; format: in vivo; settings: before and after 9-week supplementation, 0.286 mg/g body weight/day
Source text: Regarding FIG. 3, CRT brain-specific knockout male mice (CRT′ or CRT KO mice) and their control littermates (CrTf1″5″) were generated by the methods known in the art (e.g., by using the Cre-lox system and homologous recombination as described in Sauer B., Methods, 1998, 14, 381-392; the strategy for targeting the gene deletion to the brain region was based on the data described in Casanova E. et al., Genesis 2001, 31, 37-42). […] A total 29 CRT KO male mice (CRT^/y) and 28 control male mice (CRT^flox/y) at 12 months of age were used in the cyclocreatine supplementation study. The mice were randomly assigned to one of three groups that were started on one of three treatments for 9 weeks: 1) cyclocreatine (C-Cr, CRT KO=7, control=5), 2) creatine (Cr, CRT KO=5, control=5), and 3) maltodextrine as placebo (P, CRT KO=5, control=5). Each treatment drug was supplied in the drinking water and the concentration was adjusted to 0.286 mg/g body weight/day, corresponding to the standard dose of creatine for human subjects (20 g/70 kg body weight/day). Short-term memory of CRT KO mice and their control littermates before and after 9-week cyclocreatine supplementation was measured using the Novel Object Recognition test that is routinely used in the art for evaluation of cognition in rodent models of the disorders of the central nervous system. […]

CRT KO mice [3] = test: Phosphorylated metabolites in the brain by in vivo magnetic resonance spectroscopy; settings: after 9 weeks supplementation, in vivo MRS
Source text: Regarding FIG. 3, CRT brain-specific knockout male mice (CRT′ or CRT KO mice) and their control littermates (CrTf1″5″) were generated by the methods known in the art (e.g., by using the Cre-lox system and homologous recombination as described in Sauer B., Methods, 1998, 14, 381-392; the strategy for targeting the gene deletion to the brain region was based on the data described in Casanova E. et al., Genesis 2001, 31, 37-42). […] A total 29 CRT KO male mice (CRT^/y) and 28 control male mice (CRT^flox/y) at 12 months of age were used in the cyclocreatine supplementation study. The mice were randomly assigned to one of three groups that were started on one of three treatments for 9 weeks: 1) cyclocreatine (C-Cr, CRT KO=7, control=5), 2) creatine (Cr, CRT KO=5, control=5), and 3) maltodextrine as placebo (P, CRT KO=5, control=5). Each treatment drug was supplied in the drinking water and the concentration was adjusted to 0.286 mg/g body weight/day, corresponding to the standard dose of creatine for human subjects (20 g/70 kg body weight/day). The levels of phosphorylated metabolites in the brains of the CRT KO and their control littermates were measured by in vivo magnetic resonance spectroscopy using the procedures well known in the art. […] Data is expressed as mean±SE,*P≦0.05, **P≦0.01.

CRT KO mice [4] = test: Morris Water Maze test; format: in vivo
Source text: Regarding FIG. 3, CRT brain-specific knockout male mice (CRT′ or CRT KO mice) and their control littermates (CrTf1″5″) were generated by the methods known in the art (e.g., by using the Cre-lox system and homologous recombination as described in Sauer B., Methods, 1998, 14, 381-392; the strategy for targeting the gene deletion to the brain region was based on the data described in Casanova E. et al., Genesis 2001, 31, 37-42). […] A total 29 CRT KO male mice (CRT^/y) and 28 control male mice (CRT^flox/y) at 12 months of age were used in the cyclocreatine supplementation study. The mice were randomly assigned to one of three groups that were started on one of three treatments for 9 weeks: 1) cyclocreatine (C-Cr, CRT KO=7, control=5), 2) creatine (Cr, CRT KO=5, control=5), and 3) maltodextrine as placebo (P, CRT KO=5, control=5). […] Spatial learning and memory in the CRT KO mice and their control littermates before and after 9-week cyclocreatine supplementation was measured by the Morris Water Maze test, a procedure routinely used in behavioral neuroscience to study spatial learning and memory. […] The mouse swims around the pool in search of an exit while various parameters are recorded, e.g., the time spent in each quadrant of the pool and the time taken to reach the platform (latency). […] Data is expressed as mean±SE, *P≦0.05.

creatine transporter = biological target: T1, creatine transporter (Homo sapiens, UniProt P48029); settings: normal human monocytes and macrophages; read-out: Km of creatine transport; cited from earlier work
T1 construct: endogenous in cells; host or cells: normal human monocytes and macrophages
T1 sequence (P48029 1-635): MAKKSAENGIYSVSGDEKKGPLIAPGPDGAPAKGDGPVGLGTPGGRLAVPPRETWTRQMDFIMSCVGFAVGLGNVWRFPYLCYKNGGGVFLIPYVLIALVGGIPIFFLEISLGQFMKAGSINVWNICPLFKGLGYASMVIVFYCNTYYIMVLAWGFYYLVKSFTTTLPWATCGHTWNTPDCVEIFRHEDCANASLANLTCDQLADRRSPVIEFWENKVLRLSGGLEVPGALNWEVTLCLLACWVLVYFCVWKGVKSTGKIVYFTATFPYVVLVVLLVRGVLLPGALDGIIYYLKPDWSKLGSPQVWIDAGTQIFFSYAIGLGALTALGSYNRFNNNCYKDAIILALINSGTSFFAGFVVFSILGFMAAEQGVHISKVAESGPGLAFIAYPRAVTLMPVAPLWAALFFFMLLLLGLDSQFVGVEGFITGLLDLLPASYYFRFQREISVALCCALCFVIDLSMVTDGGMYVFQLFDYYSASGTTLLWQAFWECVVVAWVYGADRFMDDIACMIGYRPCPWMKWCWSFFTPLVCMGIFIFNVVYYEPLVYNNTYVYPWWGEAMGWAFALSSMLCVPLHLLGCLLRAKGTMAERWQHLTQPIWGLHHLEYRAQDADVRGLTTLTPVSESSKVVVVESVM

[5] = test system: person with X-linked creatine transporter deficiency (CTD); test: Creatine treatment of a child with X-linked creatine transporter deficiency; format: in vivo, human; settings: increasing doses to 750 mg/kg/day, discontinued after 6 months
Source text: This example illustrates that administration of creatine to a person with X-linked creatine transporter deficiency (CTD) fails to increase brain creatine or to ameliorate clinical symptoms associated with decreased brain levels of creatine. […] Several female family members were identified as heterozygote carriers of this disorder, and appear to have decreased Cr. The child had severe expressive dysphasia with other cognitive functions less affected. […] In the absence of demonstrable benefit, the creatine treatment was discontinued after 6 months.

| SMILES | levels of cyclocreatine in the brains (CRT KO mice [1]) | short-term memory (discrimination index) (CRT KO mice [2]) | levels of cyclocreatine and/or creatine phosphate in the brain (peak height ratio) (CRT KO mice [3]) | spatial learning and memory (CRT KO mice [4]; before and after 9-week supplementation) | latency in finding hidden platforms (CRT KO mice [4]; versus placebo treated CRT KO mice) | Km (creatine transporter) [µM] | clinical or spectroscopic (1H MRS) improvement [5] |
| --- | --- | --- | --- | --- | --- | --- | --- |
| NC1=NCCN1CC(=O)O [cyclocreatine] | increased | normalizes the short-term memory | increases the levels of cyclocreatine and/or creatine phosphate | improves spatial learning and memory | shorter latency | – | – |
| CN(CC(=O)O)C(=N)N [creatine] | – | no significant changes | – | – | – | ~30 | without clinical or spectroscopic (^1H MRS) improvement |
